15 molecules from US20230150974A1 (Foghorn Therapeutics Inc., priority 2020, published 2023) can be followed below.

In one assay the target is T1, HiBiT-BRM (Homo sapiens, UniProt P51531).
T1 construct: expressed in transfected cells
Nature of the assay: HiBiT-BRM cell-based degradation assay (Nano-Glo HiBiT Lytic Detection). The following applies: HeLa cells expressing HiBiT-BRM, 24 h; for DC50: read-out: BRM HiBit Degradation IC50. The essentials:
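HeLa cells stably expressing HiBiT-tagged BRM were treated for 24 h, then lysed with LgBiT-containing Nano-Glo reagent and luminescence read. % degradation scaled between DMSO (high control) and 2 μM reference BRM/BRG1 degrader (low control).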

The target of another assay is T2, HiBit-BRG1 (Homo sapiens, UniProt P51532).
T2 construct: expressed in transfected cells
T2 sequence (P51532 whole entry): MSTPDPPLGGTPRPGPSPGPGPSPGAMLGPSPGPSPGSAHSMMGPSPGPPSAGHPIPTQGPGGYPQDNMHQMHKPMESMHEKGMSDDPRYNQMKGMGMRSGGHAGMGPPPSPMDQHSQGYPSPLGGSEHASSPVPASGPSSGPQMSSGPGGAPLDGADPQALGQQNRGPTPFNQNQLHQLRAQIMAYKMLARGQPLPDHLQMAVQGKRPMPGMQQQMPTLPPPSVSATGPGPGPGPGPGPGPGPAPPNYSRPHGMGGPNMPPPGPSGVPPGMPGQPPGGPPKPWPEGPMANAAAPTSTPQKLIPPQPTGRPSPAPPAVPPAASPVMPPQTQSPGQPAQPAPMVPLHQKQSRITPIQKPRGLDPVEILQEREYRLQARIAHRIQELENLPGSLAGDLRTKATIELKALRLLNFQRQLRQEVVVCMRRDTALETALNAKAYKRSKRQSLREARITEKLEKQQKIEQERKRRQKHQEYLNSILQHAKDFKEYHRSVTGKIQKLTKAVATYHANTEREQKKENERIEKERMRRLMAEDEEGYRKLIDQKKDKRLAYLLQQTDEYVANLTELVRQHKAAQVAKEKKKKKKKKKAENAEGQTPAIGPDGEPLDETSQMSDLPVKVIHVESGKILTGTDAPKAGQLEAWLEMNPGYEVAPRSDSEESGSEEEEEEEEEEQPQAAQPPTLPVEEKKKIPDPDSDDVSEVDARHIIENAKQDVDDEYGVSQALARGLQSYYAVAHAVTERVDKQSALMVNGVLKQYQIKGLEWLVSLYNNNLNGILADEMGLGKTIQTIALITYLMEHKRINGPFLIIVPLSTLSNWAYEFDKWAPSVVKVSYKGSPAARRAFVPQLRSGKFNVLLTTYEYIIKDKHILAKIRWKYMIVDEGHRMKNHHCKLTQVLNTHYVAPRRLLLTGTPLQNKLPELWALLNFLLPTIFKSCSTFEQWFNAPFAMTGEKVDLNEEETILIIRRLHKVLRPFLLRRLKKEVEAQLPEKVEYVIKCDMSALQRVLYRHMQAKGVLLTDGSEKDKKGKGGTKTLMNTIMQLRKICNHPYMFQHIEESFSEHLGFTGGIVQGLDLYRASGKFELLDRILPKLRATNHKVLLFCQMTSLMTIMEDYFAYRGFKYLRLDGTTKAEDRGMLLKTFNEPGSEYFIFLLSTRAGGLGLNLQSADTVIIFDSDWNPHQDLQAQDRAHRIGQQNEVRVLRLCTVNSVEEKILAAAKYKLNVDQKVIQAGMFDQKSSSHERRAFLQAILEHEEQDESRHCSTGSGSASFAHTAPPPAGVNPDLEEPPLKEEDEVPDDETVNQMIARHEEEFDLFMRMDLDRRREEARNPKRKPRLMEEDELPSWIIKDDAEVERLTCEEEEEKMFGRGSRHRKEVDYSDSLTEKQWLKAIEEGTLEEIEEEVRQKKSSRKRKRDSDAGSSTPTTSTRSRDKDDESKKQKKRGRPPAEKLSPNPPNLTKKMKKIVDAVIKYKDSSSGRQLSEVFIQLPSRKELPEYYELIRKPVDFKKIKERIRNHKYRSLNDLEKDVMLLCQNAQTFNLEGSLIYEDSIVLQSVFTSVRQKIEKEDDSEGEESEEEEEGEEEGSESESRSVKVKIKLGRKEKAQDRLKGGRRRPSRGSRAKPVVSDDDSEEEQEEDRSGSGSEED
Nature of the assay: HiBit-BRG1 cell-based degradation assay (Nano-Glo HiBiT Lytic Detection). As to conditions: HeLa cells expressing HiBit-BRG1 and LgBit, 24 h; for DC50: read-out: BRG1 HiBit Degradation IC50; for Dmax: read-out: BRG1 HiBit Degradation Maximum (%). The essentials:
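Seed 5000 HeLa HiBit-BRG1/LgBit cells per well; treat 24 h; equilibrate 15 min at room temperature; add Nano-Glo HiBiT lytic reagent, shake 10 min, read luminescence. Percent degradation is scaled between DMSO and 2 μM reference degrader wells.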
A general note: HiBiT is a short tag that completes a luciferase, so light tracks the accessible tagged protein.

T1 sequence (P51531 whole entry): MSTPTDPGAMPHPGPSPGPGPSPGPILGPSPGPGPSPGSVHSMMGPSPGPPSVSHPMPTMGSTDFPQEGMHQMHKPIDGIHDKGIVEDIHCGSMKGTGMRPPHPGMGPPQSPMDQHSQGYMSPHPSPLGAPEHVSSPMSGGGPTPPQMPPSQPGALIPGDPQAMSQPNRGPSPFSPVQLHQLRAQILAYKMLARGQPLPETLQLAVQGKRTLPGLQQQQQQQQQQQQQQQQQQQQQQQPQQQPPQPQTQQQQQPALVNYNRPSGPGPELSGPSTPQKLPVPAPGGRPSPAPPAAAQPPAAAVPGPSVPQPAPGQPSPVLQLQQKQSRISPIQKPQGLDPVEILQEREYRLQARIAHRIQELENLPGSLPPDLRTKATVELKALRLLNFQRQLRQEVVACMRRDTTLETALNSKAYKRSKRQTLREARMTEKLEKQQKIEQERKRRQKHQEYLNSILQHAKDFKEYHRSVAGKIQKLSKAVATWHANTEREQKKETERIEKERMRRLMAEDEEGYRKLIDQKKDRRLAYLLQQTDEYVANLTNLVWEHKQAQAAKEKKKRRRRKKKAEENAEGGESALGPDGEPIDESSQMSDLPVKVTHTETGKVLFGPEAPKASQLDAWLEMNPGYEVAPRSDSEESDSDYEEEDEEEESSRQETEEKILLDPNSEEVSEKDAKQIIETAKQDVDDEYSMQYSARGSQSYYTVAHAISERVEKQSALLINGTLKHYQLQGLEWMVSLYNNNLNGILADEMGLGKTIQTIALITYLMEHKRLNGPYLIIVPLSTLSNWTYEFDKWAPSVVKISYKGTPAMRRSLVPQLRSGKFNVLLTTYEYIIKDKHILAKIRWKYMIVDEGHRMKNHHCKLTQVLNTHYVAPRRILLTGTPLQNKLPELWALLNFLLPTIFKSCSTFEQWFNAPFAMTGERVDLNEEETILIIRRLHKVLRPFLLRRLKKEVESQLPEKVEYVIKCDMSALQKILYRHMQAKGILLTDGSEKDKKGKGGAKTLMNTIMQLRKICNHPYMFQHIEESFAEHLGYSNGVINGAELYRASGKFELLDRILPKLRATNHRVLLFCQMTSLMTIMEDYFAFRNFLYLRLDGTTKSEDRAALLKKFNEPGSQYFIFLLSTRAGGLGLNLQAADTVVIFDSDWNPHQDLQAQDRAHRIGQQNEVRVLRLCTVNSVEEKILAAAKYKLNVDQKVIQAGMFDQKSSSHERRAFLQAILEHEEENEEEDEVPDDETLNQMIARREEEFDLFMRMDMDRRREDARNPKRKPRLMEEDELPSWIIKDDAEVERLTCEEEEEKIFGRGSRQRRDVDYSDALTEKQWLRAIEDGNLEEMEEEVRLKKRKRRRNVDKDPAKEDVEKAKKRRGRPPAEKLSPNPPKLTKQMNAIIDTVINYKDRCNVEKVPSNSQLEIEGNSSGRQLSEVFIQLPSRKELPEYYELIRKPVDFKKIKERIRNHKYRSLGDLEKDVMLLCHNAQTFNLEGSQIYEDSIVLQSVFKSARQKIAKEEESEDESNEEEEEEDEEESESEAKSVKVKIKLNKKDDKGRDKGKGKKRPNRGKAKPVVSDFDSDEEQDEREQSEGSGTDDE

Turning to `Cc1ncsc1-c1ccc(CNC(=O)[C@@H]2C[C@@H](O)CN2C(=O)[C@@H](NC(=O)CCCCCCCCC(=O)NCc2ccc(CCN(C)c3cc(-c4ccccc4O)nnc3N)cc2)C(C)(C)C)cc1` [Compound 132, N′-[[4-(2-[[3-amino-6-(2-hydroxyphenyl)pyridazin-4-yl](methyl)amino]ethyl)phenyl]methyl]-N-[(2S)-1-[(2S,4R)-4-hydroxy-2-([[4-(4-methyl-1,3-thiazol-5-yl)phenyl]methyl]carbamoyl)pyrrolidin-1-yl]-3,3-dimethyl-1-oxobutan-2-yl]decanediamide], at HiBiT-BRM, the “BRM HiBit Degradation Maximum (%)” value is reported as “A (“A” indicates maximum degradation ≥75%)” and the DC50 was > 0.1 µM. Besides, on HiBit-BRG1, the DC50 was > 1 µM and the Dmax was > 50%.

As to `Nc1nnc(-c2ccccc2O)cc1OCCc1ccc(C(=O)NCCCCCCCCCCCCCCC(=O)NCc2ccc(S(=O)(=O)Nc3cccc4c(Cl)c[nH]c34)cc2)cc1` [Compound 6, 15-[[4-(2-[[3-amino-6-(2-hydroxyphenyl)pyridazin-4-yl]oxy]ethyl)phenyl]formamido]-N-([4-[(3-chloro-1H-indol-7-yl)sulfamoyl]phenyl]methyl)pentadecanamide], at HiBiT-BRM, the “BRM HiBit Degradation Maximum (%)” value is on record as “C (“C” indicates maximum degradation <50%)” and the DC50 was > 1 µM. On HiBit-BRG1, the DC50 is > 1 µM and the Dmax is < 50%.

For the molecule `Nc1nnc(-c2ccccc2O)cc1OCCc1ccc(CN2CC(CCCOc3cccc4c3C(=O)N(C3CCC(=O)NC3=O)C4=O)C2)cc1` (stereo not drawn) [Compound 127, 4-[3-(1-[[4-(2-[[3-amino-6-(2-hydroxyphenyl)pyridazin-4-yl]oxy]ethyl)phenyl]methyl]azetidin-3-yl)propoxy]-2-(2,6-dioxopiperidin-3-yl)isoindole-1,3-dione], on HiBiT-BRM, the “BRM HiBit Degradation Maximum (%)” value is “C (“C” indicates maximum degradation <50%)” and the DC50 was > 1 µM. Besides, on HiBit-BRG1, the DC50 was > 1 µM and the Dmax is < 50%.

In the case of `Nc1nnc(-c2ccccc2O)cc1OCCc1ccc(C(=O)NCCN2CCN(c3cccc4c3C(=O)N(C3CCC(=O)NC3=O)C4=O)CC2)cc1` (stereo not drawn) [Compound 149, 4-(2-((3-amino-6-(2-hydroxyphenyl)pyridazin-4-yl)oxy)ethyl)-N-(2-(4-(2-(2,6-dioxopiperidin-3-yl)-1,3-dioxoisoindolin-4-yl)piperazin-1-yl)ethyl)benzamide], on HiBiT-BRM, the “BRM HiBit Degradation Maximum (%)” value was “A (“A” indicates maximum degradation ≥75%)” and the DC50 is > 0.1 µM. Moreover, at HiBit-BRG1, the DC50 is > 0.1 µM and the Dmax is > 50%.

On to `Cc1ncsc1-c1ccc(CNC(=O)[C@@H]2C[C@@H](O)CN2C(=O)[C@@H](NC(=O)CCN2CC3CN(C(=O)c4ccc(CCOc5cc(-c6ccccc6O)nnc5N)cc4)CC32)C(C)(C)C)cc1` (stereo partly drawn) [Compound 231, (2S,4R)-1-((2S)-2-(3-(3-(4-(2-((3-amino-6-(2-hydroxyphenyl)pyridazin-4-yl)oxy)ethyl)benzoyl)-3,6-diazabicyclo[3.2.0]heptan-6-yl)propanamido)-3,3-dimethylbutanoyl)-4-hydroxy-N-(4-(4-methylthiazol-5-yl)benzyl)pyrrolidine-2-carboxamide], for which, at HiBiT-BRM, the “BRM HiBit Degradation Maximum (%)” value is on record as “C (“C” indicates maximum degradation <50%)” and the DC50 was > 1 µM. On HiBit-BRG1, the DC50 was > 1 µM and the Dmax is < 50%.

For the molecule `Cc1ncsc1-c1ccc(CNC(=O)[C@@H]2C[C@@H](O)CN2C(=O)[C@@H](NC(=O)COCCNC(=O)c2ccc(CCOc3cc(-c4ccccc4O)nnc3N)cc2)C(C)(C)C)cc1` [Compound 163, (2S,4R)-1-((S)-2-(2-(2-(4-(2-((3-amino-6-(2-hydroxyphenyl)pyridazin-4-yl)oxy)ethyl)benzamido)ethoxy)acetamido)-3,3-dimethylbutanoyl)-4-hydroxy-N-(4-(4-methylthiazol-5-yl)benzyl)pyrrolidine-2-carboxamide], on HiBiT-BRM, the “BRM HiBit Degradation Maximum (%)” value is on record as “B (“B” indicates maximum degradation ≥50%)” and the DC50 was > 1 µM. Also, on HiBit-BRG1, the DC50 is > 1 µM and the Dmax was < 50%.

`CN(CCCCCNc1ccc2c(c1)C(=O)N(C1CCC(=O)NC1=O)C2=O)Cc1ccc(CCOc2cc(-c3ccccc3O)nnc2N)cc1` (stereo not drawn) [Compound 151, 5-[[5-([[4-(2-[[3-amino-6-(2-hydroxyphenyl)pyridazin-4-yl]oxy]ethyl)phenyl]methyl](methyl)amino)pentyl]amino]-2-(2,6-dioxopiperidin-3-yl)isoindole-1,3-dione]: at HiBiT-BRM, the “BRM HiBit Degradation Maximum (%)” value is recorded as “C (“C” indicates maximum degradation <50%)” and the DC50 is > 1 µM. On HiBit-BRG1, the DC50 was > 1 µM and the Dmax is > 50%.

On to `Cc1ncsc1-c1ccc(CNC(=O)[C@@H]2C[C@@H](O)CN2C(=O)[C@@H](NC(=O)CCN2CC3(C2)CN(C(=O)c2ccc(CCOc4cc(-c5ccccc5O)nnc4N)cc2)C3)C(C)(C)C)cc1` [Compound 200, (2S,4R)-1-((S)-2-(3-(6-(4-(2-((3-amino-6-(2-hydroxyphenyl)pyridazin-4-yl)oxy)ethyl)benzoyl)-2,6-diazaspiro[3.3]heptan-2-yl)propanamido)-3,3-dimethylbutanoyl)-4-hydroxy-N-(4-(4-methylthiazol-5-yl)benzyl)pyrrolidine-2-carboxamide], for which, at HiBiT-BRM, the “BRM HiBit Degradation Maximum (%)” value was “C (“C” indicates maximum degradation <50%)” and the DC50 was > 1 µM. At HiBit-BRG1, the DC50 is > 1 µM and the Dmax is < 50%.

In the case of `Nc1nnc(-c2ccccc2O)cc1OCCc1ccc(CNCCCOc2cccc3c2C(=O)N(C2CCC(=O)NC2=O)C3=O)cc1` (stereo not drawn) [Compound 122, 4-[3-([[4-(2-[[3-amino-6-(2-hydroxyphenyl)pyridazin-4-yl]oxy]ethyl)phenyl]methyl]amino)propoxy]-2-(2,6-dioxopiperidin-3-yl)isoindole-1,3-dione], on HiBiT-BRM, the “BRM HiBit Degradation Maximum (%)” value is recorded as “B (“B” indicates maximum degradation ≥50%)” and the DC50 is > 0.1 µM. On HiBit-BRG1, the DC50 is > 1 µM and the Dmax is > 50%.

Regarding `Nc1nnc(-c2ccccc2O)cc1OCCc1ccc(C(=O)NCCCCCCCCNc2cccc3c2CN(C2CCC(=O)NC2=O)C3=O)cc1` (stereo not drawn) [Compound 56], at HiBiT-BRM, the “BRM HiBit Degradation Maximum (%)” value is on record as “C (“C” indicates maximum degradation <50%)” and the DC50 is > 1 µM. On HiBit-BRG1, the DC50 was > 1 µM and the Dmax is < 50%.

As for `CCN(CCc1ccc(C(=O)NCCCCCCCCCC(=O)N[C@H](C(=O)N2C[C@H](O)C[C@H]2C(=O)NCc2ccc(-c3scnc3C)cc2)C(C)(C)C)cc1)c1cc(-c2ccccc2O)nnc1N` (racemic) [Compound 144, (2S,4R)-1-((S)-2-(10-(4-(2-((3-amino-6-(2-hydroxyphenyl)pyridazin-4-yl)(ethyl)amino)ethyl)benzamido)decanamido)-3,3-dimethylbutanoyl)-4-hydroxy-N-(4-(4-methylthiazol-5-yl)benzyl)pyrrolidine-2-carboxamide], at HiBiT-BRM, the “BRM HiBit Degradation Maximum (%)” value is “A (“A” indicates maximum degradation ≥75%)” and the DC50 was > 0.1 µM. Further, on HiBit-BRG1, the DC50 was > 1 µM and the Dmax was < 50%.

Take `Cc1ncsc1-c1ccc(CNC(=O)[C@@H]2C[C@@H](O)CN2C(=O)[C@@H](NC(=O)CCCCCCCCCNCc2ccc(CCN(C)c3cc(-c4ccccc4O)nnc3N)cc2)C(C)(C)C)cc1` [Compound 131, (2S,4R)-1-((S)-2-(10-((4-(2-((3-amino-6-(2-hydroxyphenyl)pyridazin-4-yl)(methyl)amino)ethyl)benzyl)amino)decanamido)-3,3-dimethylbutanoyl)-4-hydroxy-N-(4-(4-methylthiazol-5-yl)benzyl)pyrrolidine-2-carboxamide]: on HiBiT-BRM, the “BRM HiBit Degradation Maximum (%)” value is given as “A (“A” indicates maximum degradation ≥75%)” and the DC50 is > 0.1 µM. Besides, on HiBit-BRG1, the DC50 is > 0.1 µM and the Dmax is > 50%.

As to `CN(CCCCCOc1ccc2c(c1)C(=O)N(C1CCC(=O)NC1=O)C2=O)Cc1ccc(CCOc2cc(-c3ccccc3O)nnc2N)cc1` (stereo not drawn) [Compound 148, 5-((5-((4-(2-((3-amino-6-(2-hydroxyphenyl)pyridazin-4-yl)oxy)ethyl)benzyl)(methyl)amino)pentyl)oxy)-2-(2,6-dioxopiperidin-3-yl)isoindoline-1,3-dioneformate], on HiBiT-BRM, the “BRM HiBit Degradation Maximum (%)” value is listed as “C (“C” indicates maximum degradation <50%)” and the DC50 is > 1 µM. Further, on HiBit-BRG1, the DC50 is > 1 µM and the Dmax is < 50%.

As to `Nc1nnc(-c2ccccc2O)cc1OCCc1ccc(CNC(=O)CCCNc2cccc3nnn(C4CCC(=O)NC4=O)c(=O)c23)cc1` (stereo not drawn) [Compound 106, N-(4-(2-((3-amino-6-(2-hydroxyphenyl)pyridazin-4-yl)oxy)ethyl)benzyl)-4-((3-(2,6-dioxopiperidin-3-yl)-4-oxo-3,4-dihydrobenzo[d][1,2,3]triazin-5-yl)amino)butanamide], on HiBiT-BRM, the “BRM HiBit Degradation Maximum (%)” value is listed as “C (“C” indicates maximum degradation <50%)” and the DC50 was > 1 µM. Further, at HiBit-BRG1, the DC50 was > 1 µM and the Dmax was < 50%.

Turning to `Nc1nnc(-c2ccccc2O)cc1OCCc1ccc(C(=O)NCCCCCCCCNc2cccc3c2C(=O)N(C2CCC(=O)NC2=O)C3=O)cc1` (stereo not drawn) [Compound 44, 4-(2-((3-amino-6-(2-hydroxyphenyl)pyridazin-4-yl)oxy)ethyl)-N-(8-((2-(2,6-dioxopiperidin-3-yl)-1,3-dioxoisoindolin-4-yl)amino)octyl)benzamide], at HiBiT-BRM, the “BRM HiBit Degradation Maximum (%)” value is reported as “B (“B” indicates maximum degradation ≥50%)” and the DC50 was > 0.1 µM. At HiBit-BRG1, the DC50 is > 1 µM and the Dmax is < 50%.
